According to patent publication US8148373B2, “Compounds” (AstraZeneca AB, priority 2008, dated 2012):

What was measured:
[1] = target: T1, Adrenergic β2 (H292 cells) (Homo sapiens, UniProt P07550); assay: Assay for Adrenergic β2 Mediated cAMP Production (concentration response, AlphaScreen cAMP detection); assay type: cell-based; conditions: for EC50: cAMP production, 60 minutes at room temperature, 300 μM rolipram, read-out: β2 pEC50 (converted); for β2 Intrinsic activity: fraction relative to the maximum activity determined for formoterol
T1 construct: endogenous in cells; host or cells: H292 cells
T1 sequence (P07550 whole entry): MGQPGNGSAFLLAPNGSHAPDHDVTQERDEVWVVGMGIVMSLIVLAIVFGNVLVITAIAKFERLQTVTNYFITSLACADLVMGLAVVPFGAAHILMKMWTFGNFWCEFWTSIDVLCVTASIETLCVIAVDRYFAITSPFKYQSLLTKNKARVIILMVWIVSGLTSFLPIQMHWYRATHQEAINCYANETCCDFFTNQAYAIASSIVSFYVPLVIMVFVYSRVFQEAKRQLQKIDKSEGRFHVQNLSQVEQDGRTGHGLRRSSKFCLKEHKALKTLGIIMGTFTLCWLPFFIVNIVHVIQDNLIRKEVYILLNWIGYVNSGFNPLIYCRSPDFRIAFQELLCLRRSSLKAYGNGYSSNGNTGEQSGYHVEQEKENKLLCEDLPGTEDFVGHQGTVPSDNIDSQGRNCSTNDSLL
Method in brief: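 Intrinsic activity is relative to the per-experiment formoterol maximum, with pEC50 from a four-parameter logistic fit of cAMP levels quantified by AlphaScreen against standards. Cells (H292) got 300 μM rolipram for 10 min, then compound for 60 min at room temperature, 1% DMSO final.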

[2] = target: T2, human muscarinic acetylcholine M3 receptor (M3-ACh) (Homo sapiens, UniProt P20309); assay: Muscarinic 3 Receptor Binding Assay ([3H]NMS competition, SPA); conditions: [3H]NMS 0.1 nM, CHO-K1 cell membranes, 16 hours at room temperature; read-out: M3 pIC50 (converted)
T2 construct: expressed in transfected cells; host or cells: CHO-K1 (Chinese Hamster Ovary) cell membranes
T2 sequence (P20309 whole entry): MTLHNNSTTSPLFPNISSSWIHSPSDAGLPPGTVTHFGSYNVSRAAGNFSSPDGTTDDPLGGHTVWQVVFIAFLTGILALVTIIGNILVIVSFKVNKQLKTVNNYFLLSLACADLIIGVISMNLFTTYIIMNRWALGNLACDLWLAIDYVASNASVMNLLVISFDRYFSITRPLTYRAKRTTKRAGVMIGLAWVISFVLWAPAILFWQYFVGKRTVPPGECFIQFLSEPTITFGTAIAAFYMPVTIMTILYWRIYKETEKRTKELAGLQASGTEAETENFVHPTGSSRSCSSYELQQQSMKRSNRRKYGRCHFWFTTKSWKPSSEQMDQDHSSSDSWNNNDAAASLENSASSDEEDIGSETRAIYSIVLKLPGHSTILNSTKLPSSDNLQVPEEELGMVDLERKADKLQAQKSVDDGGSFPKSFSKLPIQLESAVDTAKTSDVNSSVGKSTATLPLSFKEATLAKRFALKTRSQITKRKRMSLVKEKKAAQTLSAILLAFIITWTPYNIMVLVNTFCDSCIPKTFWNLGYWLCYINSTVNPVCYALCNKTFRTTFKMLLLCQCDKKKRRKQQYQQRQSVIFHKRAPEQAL
Method in brief: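 Competition SPA binding of 0.1 nM [3H]NMS (quarter Kd) to membranes from CHO-K1 cells expressing human M3, in 20 mM HEPES pH 7.4, 5 mM MgCl2, 1% DMSO. Incubated 16 h at room temperature; non-specific binding with 1 µM atropine. pIC50 from 50% reduction of specific binding.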

In the case of `CC(C)c1nc(C(=O)N2CCOC3(CCN(Cc4ccc(Cl)c(CCNC[C@H](O)c5ccc(O)c6[nH]c(=O)sc56)c4)CC3)C2)cs1` [Example 75, (R)-7-(2-(2-Chloro-5-((4-(2-isopropylthiazole-4-carbonyl)-1-oxa-4,9-diazaspiro[5.5]undecan-9-yl)methyl)phenethylamino)-1-hydroxyethyl)-4-hydroxybenzo[d]thiazol-2(3H)-one ditrifluoroacetate], the EC50 [1] is reported as 25.1 nM, the “β2 Intrinsic activity” value [1] is reported as 0.8 and the IC50 [2] is reported as 2 nM.

For `CC(C)c1csc(C(=O)N2CCOC3(CCN(Cc4cccc(CCNC[C@H](O)c5ccc(O)c6[nH]c(=O)ccc56)c4)CC3)C2)n1` [Example 76, (R)-8-Hydroxy-5-(1-hydroxy-2-(3-((4-(4-isopropylthiazole-2-carbonyl)-1-oxa-4,9-diazaspiro[5.5]undecan-9-yl)methyl)phenethylamino)ethyl)quinolin-2(1H)-one ditrifluoroacetate], the EC50 [1] was 31.6 nM, the “β2 Intrinsic activity” value [1] was 0.9 and the IC50 [2] was 2 nM.

`CC(C)c1nc(C(=O)N2CCOC3(CCN(CCOc4ccc(CCNC[C@H](O)c5ccc(O)c6[nH]c(=O)ccc56)c(F)c4F)CC3)C2)cs1` [Example 77, (R)-5-(2-(2,3-Difluoro-4-(2-(4-(2-isopropylthiazole-4-carbonyl)-1-oxa-4,9-diazaspiro[5.5]undecan-9-yl)ethoxy)phenethylamino)-1-hydroxyethyl)-8-hydroxyquinolin-2(1H)-one ditrifluoroacetate] was tested, and the EC50 [1] was 79.4 nM, the “β2 Intrinsic activity” value [1] was 1 and the IC50 [2] was 2.51 nM.

With `CCCCc1nc(C(=O)N2CCOC3(CCN(Cc4cccc(CCNC[C@H](O)c5ccc(O)c6[nH]c(=O)sc56)c4F)CC3)C2)cs1` [Example 78, (R)-7-(2-(3-((4-(2-Butylthiazole-4-carbonyl)-1-oxa-4,9-diazaspiro[5.5]undecan-9-yl)methyl)-2-fluorophenethylamino)-1-hydroxyethyl)-4-hydroxybenzo[d]thiazol-2(3H)-one ditrifluoroacetate] the EC50 [1] was 15.8 nM, the “β2 Intrinsic activity” value [1] was 0.9 and the IC50 [2] was 10 nM.

`O=C(c1cc2ccccc2s1)N1CCOC2(CCN(Cc3cccc(CCNC[C@H](O)c4ccc(O)c5[nH]c(=O)sc45)c3F)CC2)C1` [Example 79, (R)-7-(2-(3-((4-(Benzo[b]thiophene-2-carbonyl)-1-oxa-4,9-diazaspiro[5.5]undecan-9-yl)methyl)-2-fluorophenethylamino)-1-hydroxyethyl)-4-hydroxybenzo[d]thiazol-2(3H)-one ditrifluoroacetate] was tested, and the EC50 [1] was 6.31 nM, the “β2 Intrinsic activity” value [1] was 0.9 and the IC50 [2] was 126 nM.

For `CC(C)c1nc(C(=O)N2CCOC3(CCN(Cc4cccc(CCNC[C@H](O)c5ccc(O)c6[nH]c(=O)sc56)c4Cl)CC3)C2)cs1` [Example 80, (R)-7-(2-(2-Chloro-3-((4-(2-isopropylthiazole-4-carbonyl)-1-oxa-4,9-diazaspiro[5.5]undecan-9-yl)methyl)phenethylamino)-1-hydroxyethyl)-4-hydroxybenzo[d]thiazol-2(3H)-one ditrifluoroacetate], the EC50 [1] was 6.31 nM, the “β2 Intrinsic activity” value [1] was 0.8 and the IC50 [2] was 5.01 nM.

`CC(C)c1nc(C(=O)N2CCOC3(CCN(Cc4cccc(CCNC[C@H](O)c5ccc(O)c6[nH]c(=O)ccc56)c4Cl)CC3)C2)cs1` [Example 81, (R)-5-(2-(2-Chloro-3-((4-(2-isopropylthiazole-4-carbonyl)-1-oxa-4,9-diazaspiro[5.5]undecan-9-yl)methyl)phenethylamino)-1-hydroxyethyl)-8-hydroxyquinolin-2(1H)-one ditrifluoroacetate] was tested, and the EC50 [1] was 7.94 nM, the “β2 Intrinsic activity” value [1] was 0.7 and the IC50 [2] was 6.31 nM.

`CC(C)c1cc(C(=O)N2CCOC3(CCN(Cc4cccc(CCNC[C@H](O)c5ccc(O)c6[nH]c(=O)sc56)c4)CC3)C2)cs1` [Example 82, (R)-4-Hydroxy-7-(1-hydroxy-2-(3-((4-(5-isopropylthiophene-3-carbonyl)-1-oxa-4,9-diazaspiro[5.5]undecan-9-yl)methyl)phenethylamino)ethyl)benzo[d]thiazol-2(3H)-one ditrifluoroacetate] was tested, and the EC50 [1] was 3.98 nM, the “β2 Intrinsic activity” value [1] was 0.9 and the IC50 [2] was 0.398 nM.

In the case of `CC(C)c1cc(C(=O)N2CCOC3(CCN(Cc4cccc(CCNC[C@H](O)c5ccc(O)c6[nH]c(=O)ccc56)c4)CC3)C2)cs1` [Example 83, (R)-8-Hydroxy-5-(1-hydroxy-2-(3-((4-(5-isopropylthiophene-3-carbonyl)-1-oxa-4,9-diazaspiro[5.5]undecan-9-yl)methyl)phenethylamino)ethyl)quinolin-2(1H)-one ditrifluoroacetate], the EC50 [1] is reported as 12.6 nM, the “β2 Intrinsic activity” value [1] is reported as 0.8 and the IC50 [2] is reported as 0.501 nM.

With `CC(C)Cc1nc(C(=O)N2CCOC3(CCN(Cc4cccc(CCNC[C@H](O)c5ccc(O)c6[nH]c(=O)sc56)c4)CC3)C2)cs1` [Example 84, (R)-4-Hydroxy-7-(1-hydroxy-2-(3-((4-(2-isobutylthiazole-4-carbonyl)-1-oxa-4,9-diazaspiro[5.5]undecan-9-yl)methyl)phenethylamino)ethyl)benzo[d]thiazol-2(3H)-one ditrifluoroacetate] the EC50 [1] was 5.01 nM, the “β2 Intrinsic activity” value [1] was 0.9 and the IC50 [2] was 0.794 nM.

For `CC(C)c1cccc(C(=O)N2CCOC3(CCN(Cc4cccc(CCNC[C@H](O)c5ccc(O)c6[nH]c(=O)sc56)c4F)CC3)C2)n1` [Example 85, (R)-7-(2-(2-Fluoro-3-((4-(6-isopropylpicolinoyl)-1-oxa-4,9-diazaspiro[5.5]undecan-9-yl)methyl)phenethylamino)-1-hydroxyethyl)-4-hydroxybenzo[d]thiazol-2(3H)-one ditrifluoroacetate], the EC50 [1] was 7.94 nM, the “β2 Intrinsic activity” value [1] was 0.8 and the IC50 [2] was 50.1 nM.

For `CCc1cc(C(=O)N2CCOC3(CCN(Cc4cccc(CCNC[C@H](O)c5ccc(O)c6[nH]c(=O)sc56)c4)CC3)C2)cs1` [Example 86, (R)-7-(2-(3-((4-(5-Ethylthiophene-3-carbonyl)-1-oxa-4,9-diazaspiro[5.5]undecan-9-yl)methyl)phenethylamino)-1-hydroxyethyl)-4-hydroxybenzo[d]thiazol-2(3H)-one ditrifluoroacetate], the EC50 [1] was 2.51 nM, the “β2 Intrinsic activity” value [1] was 0.8 and the IC50 [2] was 0.158 nM.

`CCCc1nc(C(=O)N2CCOC3(CCN(Cc4cccc(CCNC[C@H](O)c5ccc(O)c6[nH]c(=O)sc56)c4)CC3)C2)cs1` [Example 87, (R)-4-Hydroxy-7-(1-hydroxy-2-(3-((4-(2-propylthiazole-4-carbonyl)-1-oxa-4,9-diazaspiro[5.5]undecan-9-yl)methyl)phenethylamino)ethyl)benzo[d]thiazol-2(3H)-one ditrifluoroacetate] was tested, and the EC50 [1] was 3.16 nM, the “β2 Intrinsic activity” value [1] was 0.9 and the IC50 [2] was 0.501 nM.

`CC(C)c1nc(C(=O)N2CCOC3(CCN(Cc4cccc(CCCNC[C@H](O)c5ccc(O)c6[nH]c(=O)sc56)c4F)CC3)C2)cs1` [Example 88, (R)-7-(2-(3-(2-Fluoro-3-((4-(2-isopropylthiazole-4-carbonyl)-1-oxa-4,9-diazaspiro[5.5]undecan-9-yl)methyl)phenyl)propylamino)-1-hydroxyethyl)-4-hydroxybenzo[d]thiazol-2(3H)-one ditrifluoroacetate] was tested, and the EC50 [1] was 12.6 nM, the “β2 Intrinsic activity” value [1] was 1 and the IC50 [2] was 2 nM.

`Cc1nc(C(=O)N2CCOC3(CCN(Cc4cccc(CCNC[C@H](O)c5ccc(O)c6[nH]c(=O)sc56)c4)CC3)CC2)cs1` [Example 89, (R)-4-Hydroxy-7-(1-hydroxy-2-(3-((10-(2-methylthiazole-4-carbonyl)-7-oxa-3,10-diazaspiro[5.6]dodecan-3-yl)methyl)phenethylamino)ethyl)benzo[d]thiazol-2(3H)-one ditrifluoroacetate] was tested, and the EC50 [1] was 1.58 nM, the “β2 Intrinsic activity” value [1] was 1 and the IC50 [2] was 31.6 nM.

For `CC(C)c1nc(C(=O)N2CCOC3(CCN(Cc4cccc(C(C)(C)CNC[C@H](O)c5ccc(O)c6[nH]c(=O)sc56)c4F)CC3)C2)cs1` [Example 90, (R)-7-(2-(2-(2-Fluoro-3-((4-(2-isopropylthiazole-4-carbonyl)-1-oxa-4,9-diazaspiro[5.5]undecan-9-yl)methyl)phenyl)-2-methylpropylamino)-1-hydroxyethyl)-4-hydroxybenzo[d]thiazol-2(3H)-one ditrifluoroacetate], the EC50 [1] was 200 nM, the “β2 Intrinsic activity” value [1] was 0.9 and the IC50 [2] was 79.4 nM.

In the case of `CCc1cc(C(=O)N2CCOC3(CCN(Cc4cccc(CCNC[C@H](O)c5ccc(O)c6[nH]c(=O)sc56)c4F)CC3)C2)cs1` [Example 91, (R)-7-(2-(3-((4-(5-Ethylthiophene-3-carbonyl)-1-oxa-4,9-diazaspiro[5.5]undecan-9-yl)methyl)-2-fluorophenethylamino)-1-hydroxyethyl)-4-hydroxybenzo[d]thiazol-2(3H)-one ditrifluoroacetate], the EC50 [1] is reported as 1.26 nM, the “β2 Intrinsic activity” value [1] is reported as 0.7 and the IC50 [2] is reported as 2 nM.

In the case of `CC(C)c1nc(C(=O)N2CCOC3(CCN(Cc4cccc(C(C)(C)CNC[C@H](O)c5ccc(O)c6[nH]c(=O)ccc56)c4F)CC3)C2)cs1` [Example 92, (R)-5-(2-(2-(2-Fluoro-3-((4-(2-isopropylthiazole-4-carbonyl)-1-oxa-4,9-diazaspiro[5.5]undecan-9-yl)methyl)phenyl)-2-methylpropylamino)-1-hydroxyethyl)-8-hydroxyquinolin-2(1H)-one ditrifluoroacetate], the EC50 [1] is reported as 794 nM, the “β2 Intrinsic activity” value [1] is reported as 0.9 and the IC50 [2] is reported as 126 nM.
